Measured values published in patent US9023789B2, “Amylin analogs and pharmaceutical compositions thereof” (Novo Nordisk A/S, priority 2012, dated 2015).
Numbered stars: 1 amine (or outer) side, 2 acyl side, 3 side chain; on linkers, the order of the positions; unused ones are H or OH. Bridge positions count the residues as written; N and C are the ends. Side chains are listed from the residue outwards. Peptide text beside a SMILES is read from it. * marks the point of attachment. C20 diacid = O=C(O)CCCCCCCCCCCCCCCCCCC(=O)*; γGlu = O=C(O)[C@H](CCC(=O)[*:2])N[*:1]; AEEA = NCCOCCOCC(=O)O

Molecular target: T1, rat amylin receptor (rat calcitonin receptor + rat RAMP 3) (Rattus norvegicus, UniProt P32214+Q9JJ73)
T1 construct: expressed in transfected cells; host or cells: BHK tk'ts 13 (transient, FuGENE 6), membranes
T1 sequence (P32214 25-479 isoform P32214-2 limits assumed): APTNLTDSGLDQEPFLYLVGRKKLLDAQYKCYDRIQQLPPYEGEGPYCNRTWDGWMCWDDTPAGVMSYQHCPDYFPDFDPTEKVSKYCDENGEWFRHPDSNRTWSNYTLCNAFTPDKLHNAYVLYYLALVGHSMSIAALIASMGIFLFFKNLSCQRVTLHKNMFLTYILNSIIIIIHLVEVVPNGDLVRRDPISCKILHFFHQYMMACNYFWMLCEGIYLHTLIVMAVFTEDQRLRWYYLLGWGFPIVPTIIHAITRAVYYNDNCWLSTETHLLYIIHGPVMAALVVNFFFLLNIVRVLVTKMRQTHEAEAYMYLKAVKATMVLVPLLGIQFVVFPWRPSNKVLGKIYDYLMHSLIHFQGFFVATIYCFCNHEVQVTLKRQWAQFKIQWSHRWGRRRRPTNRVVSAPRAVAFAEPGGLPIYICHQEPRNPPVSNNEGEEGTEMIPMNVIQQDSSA
T1 sequence (Q9JJ73 23-147 partner): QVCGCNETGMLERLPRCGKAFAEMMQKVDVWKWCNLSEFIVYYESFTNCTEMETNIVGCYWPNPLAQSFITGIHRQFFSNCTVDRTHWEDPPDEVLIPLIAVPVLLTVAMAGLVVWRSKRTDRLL
Assay: ASSAY (VI) binding to the rat amylin receptor
Conditions: Table 7; for Ratio rCT/rAmylin binding: rat binding selectivity, rCTR IC50 / rAmylin-R IC50
Method in brief: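 This assay measured binding to the rat amylin receptor. BHK tk′ts 13 cells were transiently transfected with the rat calcitonin receptor using FuGENE® 6 (Roche), following the manufacturer's recommendations. About 48 hours after transfection, the cells were harvested and membranes were prepared from them for the binding determination.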

Compound	Ratio rCT/rAmylin binding	IC50 (binding to rat amylin receptor, read-out: rAmylin-R bind IC50) [pM]
CC[C@H](C)[C@H](NC(=O)[C@H](C)NC(=O)CNC(=O)[C@H](Cc1ccccc1)NC(=O)[C@H](CC(N)=O)NC(=O)[C@@H]1CCCN1C(=O)[C@H](CO)NC(=O)[C@H](CO)NC(=O)[C@H](Cc1c[nH]cn1)NC(=O)[C@H](CCCNC(=N)N)NC(=O)[C@H](CC(C)C)NC(=O)[C@H](Cc1ccccc1)NC(=O)[C@H](CCC(=O)O)NC(=O)[C@H](C)NC(=O)[C@H](CC(C)C)NC(=O)[C@H](CCCNC(=N)N)NC(=O)[C@H](CCC(N)=O)NC(=O)[C@@H](NC(=O)[C@H](C)NC(=O)[C@@H]1CSSC[C@H](NC(=O)[C@H](CCCCN)NC(=O)COCCOCCNC(=O)COCCOCCNC(=O)CC[C@H](NC(=O)CCCCCCCCCCCCCCCCCCC(=O)O)C(=O)O)C(=O)N[C@@H](CC(N)=O)C(=O)N[C@@H]([C@@H](C)O)C(=O)N[C@@H](C)C(=O)N[C@@H]([C@@H](C)O)C(=O)N1)[C@@H](C)O)C(=O)N1CCC[C@H]1C(=O)N[C@@H](CO)C(=O)N[C@@H](CO)C(=O)N[C@H](C(=O)N[C@@H](CC(N)=O)C(=O)N[C@H](C(=O)NCC(=O)N[C@@H](CO)C(=O)N[C@@H](CC(N)=O)C(=O)N[C@H](C(=O)N1CCC[C@H]1C(N)=O)[C@@H](C)O)C(C)C)[C@@H](C)O [Example 20] ({C20 diacid-γGlu-AEEA-AEEA}-KCNTATCATQRLAEFLRHSSPNFGAIPSSTNVGSNTP-NH2; disulfide 2-7)	6.4	
CC[C@H](C)[C@H](NC(=O)[C@H](C)NC(=O)CNC(=O)[C@H](Cc1ccccc1)NC(=O)[C@H](CC(N)=O)NC(=O)[C@@H]1CCCN1C(=O)[C@H](CO)NC(=O)[C@H](CO)NC(=O)[C@H](Cc1c[nH]cn1)NC(=O)[C@H](CCCNC(=N)N)NC(=O)[C@H](CC(C)C)NC(=O)[C@H](Cc1ccccc1)NC(=O)[C@H](CCC(=O)O)NC(=O)[C@H](C)NC(=O)[C@H](CC(C)C)NC(=O)[C@H](CCCNC(=N)N)NC(=O)[C@H](CCC(N)=O)NC(=O)[C@@H](NC(=O)[C@H](C)NC(=O)[C@@H]1CSSC[C@H](NC(=O)[C@@H](N)CCCCNC(=O)CC[C@H](NC(=O)CCCCCCCCCCCCCCCCCCC(=O)O)C(=O)O)C(=O)N[C@@H](CC(N)=O)C(=O)N[C@@H]([C@@H](C)O)C(=O)N[C@@H](C)C(=O)N[C@@H]([C@@H](C)O)C(=O)N1)[C@@H](C)O)C(=O)N1CCC[C@H]1C(=O)N[C@@H](CO)C(=O)N[C@@H](CO)C(=O)N[C@H](C(=O)N[C@@H](CC(N)=O)C(=O)N[C@H](C(=O)NCC(=O)N1CCC[C@H]1C(=O)N[C@@H](CC(N)=O)C(=O)N[C@H](C(=O)N1CCC[C@H]1C(N)=O)[C@@H](C)O)C(C)C)[C@@H](C)O [Example 114] (H-K([γGlu-C20 diacid])CNTATCATQRLAEFLRHSSPNFGAIPSSTNVGPNTP-NH2; disulfide 2-7 (inferred); N-terminus assumed)	1.1	
CC[C@H](C)[C@H](NC(=O)[C@H](C)NC(=O)CNC(=O)[C@H](Cc1ccccc1)NC(=O)[C@H](CC(N)=O)NC(=O)[C@@H]1CCCN1C(=O)[C@H](CO)NC(=O)[C@H](CO)NC(=O)[C@H](Cc1c[nH]cn1)NC(=O)[C@H](CCCNC(=N)N)NC(=O)[C@H](CC(C)C)NC(=O)[C@H](Cc1ccccc1)NC(=O)[C@H](Cc1c[nH]cn1)NC(=O)[C@H](C)NC(=O)[C@H](CC(C)C)NC(=O)[C@H](CCCNC(=N)N)NC(=O)[C@H](CCC(N)=O)NC(=O)[C@@H](NC(=O)[C@H](C)NC(=O)[C@@H]1CSSC[C@H](NC(=O)[C@@H](N)CCCCNC(=O)CC[C@H](NC(=O)CCCCCCCCCCCCCCCCCCC(=O)O)C(=O)O)C(=O)N[C@@H](CC(N)=O)C(=O)N[C@@H]([C@@H](C)O)C(=O)N[C@@H](C)C(=O)N[C@@H]([C@@H](C)O)C(=O)N1)[C@@H](C)O)C(=O)N1CCC[C@H]1C(=O)N[C@@H](CO)C(=O)N[C@@H](CO)C(=O)N[C@H](C(=O)N[C@@H](CC(N)=O)C(=O)N[C@H](C(=O)NCC(=O)N1CCC[C@H]1C(=O)N[C@@H](CC(N)=O)C(=O)N[C@H](C(=O)N1CCC[C@H]1C(N)=O)[C@@H](C)O)C(C)C)[C@@H](C)O [Example 115] (H-K([γGlu-C20 diacid])CNTATCATQRLAHFLRHSSPNFGAIPSSTNVGPNTP-NH2; disulfide 2-7 (inferred); N-terminus assumed)	3.0	125
